Results from publication PMC9794698, “Structure optimization of new tumor-selective Passerini α-acyloxy carboxamides as Caspase-3/7 activators” (Scientific Reports, 2022).
Where “and” joins values, the source holds several entries; their conditions need not be identical. Identical values can stand only once. Like-named read-outs stand apart in the source and are kept apart here.

Key:
[1] = system: Wi-38 cells; parameters: method as in PMID 30826510; details: MTT; previously studied nitro lead; cited from earlier work
[2] = system: HepG-2 cells; parameters: method as in PMID 30826510; details: previously studied nitro lead, cited from earlier work
[3] = system: Wi-38 cells; assay: MTT cytotoxicity assay, normal human fibroblasts; assay type: cell-based; details: 72 h, mean ± SEM; for MNTC: dose at 100% cell viability, read-out: Wi-38 EC100
Protocol: (§1) Wi-38, Caco-2 and HepG-2 cells were cultured in DMEM medium-contained 10% FBS, seeded as 5 × 10^3 cells per well in 96-well cell culture plate and incubated at 37 °C in 5% CO2 incubator. After 24 h, serial concentrations of the test compounds were incubated with cells for 72 h. Cell viability was assayed via MTT protocol[27] (Supplementary data). IC50 values of the synthesized compounds were measured via the Graphpad Instat software. Morphological changes were examined using phase contrast inverted microscope with a digital camera (Olympus, Japan). […]
(§2) Normal human lung fibroblast Wi-38 cell line was used to detect cytotoxicity of the studied compounds.
Wi-38 cell line was cultured in DMEM medium-contained 10% fetal bovine serum (FBS), seeded as 5x10^3 cells per well in 96-well cell culture plate and incubated at 37 °C in 5% CO2 incubator. After 24 h for cell attachment, serial concentrations of the synthetic compounds and standard chemotherapy (5-fluorouracil) were incubated with Wi-38 cells for 72 h. Cell viability was assayed by MTT method Twenty microliters of 5 mg/ml MTT (Sigma, USA) was added to each well and the plate was incubated at 37 °C for 3 h. Then MTT solution was removed, 100 µl DMSO was added, and the absorbance of each well was measured with a microplate reader (BMG LabTech, Germany) at 570 nm. The dose (EC50 and EC100) values (at 50% and100% cell viability, respectively) of the tested compounds was estimated by the Graphpad Instat software. […]

[4] = system: Caco-2 cells; assay: MTT cytotoxicity assay, colorectal cancer cells; assay type: cell-based, human; details: for SI against the screened cell lines: Caco-2 and HepG-2 cells versus Wi-38; for IC50: Homo sapiens; for Caco-2 LE: LE = 1.37 (pIC50)/NHA; for Caco-2 LLE: LLE = pIC50–cLog P; for Morphological alterations of treated Caco-2 cells: microscopic examination after 72 h, compared to untreated and 5-FU-treated cells; for Caco-2 SI: ratio of IC50 against normal cells (Wi-38) to IC50 against Caco-2
Protocol: as §1, §2
(§3) Wi-38 cell line was cultured in DMEM medium-contained 10% fetal bovine serum (FBS), seeded as 5x10^3 cells per well in 96-well cell culture plate and incubated at 37 °C in 5% CO2 incubator. After 24 h for cell attachment, serial concentrations of the synthetic compounds and standard chemotherapy (5-fluorouracil) were incubated with Wi-38 cells for 72 h. Cell viability was assayed by MTT method Twenty microliters of 5 mg/ml MTT (Sigma, USA) was added to each well and the plate was incubated at 37 °C for 3 h. Then MTT solution was removed, 100 µl DMSO was added, and the absorbance of each well was measured with a microplate reader (BMG LabTech, Germany) at 570 nm. The dose (EC50 and EC100) values (at 50% and100% cell viability, respectively) of the tested compounds was estimated by the Graphpad Instat software.
(§4) The anticancer effect of the above-mentioned compounds was assayed using human colon cancer cell line (Caco-2) and liver cancer cell line (HepG-2) that were cultured in DMEM (Lonza, USA) supplemented with 10%
(§5) FBS. All cancer cells (5x10^3 cells/well) were seeded in sterile 96-well plates. After 24h, serial concentrations of the tested compounds and 5-fluorouracil (Fu) were incubated with two cancer cell lines for 72 h at 37 °C in 5% CO2 incubator. MTT method was done as described above. The half maximal inhibitory concentration (IC50) values were calculated using the Graphpad Instat software. Furthermore, cellular morphological changes before […]
(§6) contrast inverted microscope with a digital camera (Olympus, Japan).

[5] = system: HepG-2 cells; assay: MTT cytotoxicity assay, liver cancer cells; assay type: cell-based, human; details: for IC50: Homo sapiens, HepG2; for Morphological alterations of treated HepG-2 cells: microscopic examination after 72 h, compared to untreated and 5-FU-treated cells; for HepG-2 SI: ratio of IC50 against normal cells (Wi-38) to IC50 against HepG-2
Protocol: as §1, §2, §3, §4, §5, §6

[6] = system: caspase-3/7; assay: Caspase-3/7 activation assay (ApoONE kit) in Caco-2 cells; assay type: cell-based, human; details: Caco-2 cells treated with IC50 doses; relative to untreated cells; mean ± SEM
Protocol: (§7) ApoONE® Caspase-3/7 kit was used following the manufacturer’s instructions (Supplementary data).
(§8) 5.2. Caspase-3/7 activation assay
(§9) The caspase 3/7 activation was assessed, as a key indicator in caspase-dependent apoptosis, using ApoONE® Caspase-3/7 kit following the manufacturer’s instructions. This kit used a nonfluorescence substrate […]
(§10) the generation of the fluorescence signals of Rhodamine 110. Thesesignal were measured at 490 nm excitation and 520 nm emission using the fluorescence microplate reader (BMG LabTech, Germany). […]

[7] = system: caspase-3/7; assay: Caspase-3/7 activation assay (ApoONE kit) in HepG-2 cells; assay type: cell-based, human; details: HepG-2 cells treated with IC50 doses; relative to untreated cells; mean ± SEM
Protocol: as §7, §8, §9, §10

[8] = system: Bcl2; assay: RT-qPCR of Bcl2 expression in Caco-2 cells; assay type: cell-based, human; details: 0.06 µM for 72 h, mean ± SEM
Protocol: (§11) RNAs of untreated and treated cancer cells were extracted using Gene JET RNA purification kit (Thermo Scientific, USA). Then cDNAs were synthesized using cDNA Synthesis Kit (Thermo Scientific, USA). Real time PCR was performed using SYBR green master mix and specific primers (Forward/Reverse) as detailed in the supplementary data. […]
5.3. Real-time Quantitative PCR Analysis of Bcl2 […]
as §11, with “µM, for 72 h in 5% CO2 incubator. RNAs” for “RNAs”, “primers” for “primers (Forward/Reverse) as detailed in the supplementary data.”
The thermal cycling parameters were pre-denaturation, followed by 40 amplification cycles of 1 min at 95°C and 30 s at 60 °C and at 72°C for 30 sec. GAPDH mRNA was quantified to adjust the amount of mRNA in each sample. The 2−ΔΔCT equation was used to estimate change in gene expressions before and after treatment of cancer cells.
Table 1 primer sequences of the used genes

[9] = system: Caco-2 cells; assay: Flow cytometric analysis of apoptosis (annexin V/PI); assay type: cell-based, human; details: IC50 doses, 72 h, annexin-stained, mean ± SEM
Protocol: Reverse: 5′-[…]-3′
5.4. Flow cytometric analysis of apoptosis […]
human colon cancer cell line (Caco-2) for 72 h, at their minimum IC50 doses. After trypsinization, the untreated and treated cancer cells were stained with fluorescein isothiocyanate (FITC)-annexin V/ propidium iodide (PI) for 15 min. After washing with PBS, the annexin-stained apoptotic population was quantified using flow cytometry at FITC signal detector (FL1) against the phycoerythrin emission signal detector (FL2).

[10] = Caco-2, -log (IC50), molar, read-out: Caco-2 IC50 (converted)
[11] = Caco-2, MTT, 72 h, mean ± SEM, read-out: Caco-2 IC50 (converted)
[12] = Caco-2 and HepG-2 cells, MTT, read-out: IC50 against the screened cell lines
[13] = MTT, 72 h, mean ± SEM, read-out: HepG-2 IC50
[14] = read-out: HepG-2 pIC50 (converted)

Structure (SMILES)	MNTC [3]	IC50 [3]	SI against the screened cell lines [4]	IC50 [4, 10]	IC50 [4, 11]	IC50 [4, 12]	Caco-2 LE [4]	Caco-2 LLE [4]	Morphological alterations of treated Caco-2 cells [4]	Caco-2 SI [4]	IC50 [5, 13]	IC50 [5, 14]	Morphological alterations of treated HepG-2 cells [5]	HepG-2 SI [5]	Relative fold increment in caspase 3/7 activity, Caco-2 [6]	Relative fold increment in caspase 3/7 activity, HepG-2 [7]	Bcl2 gene relative fold change [8]	% Apoptosis (total apoptotic cell population) [9]	further results
O=C(Cc1ccccc1)OC1(C(=O)Nc2ccc([N+](=O)[O-])cc2)CCCCC1 [V]																			IC50 [1]: 44 nM; IC50 ([2]; MTT): 14 nM; SI (HepG-2) ([2]; Wi-38 vs HepG-2): 3.091
CCOC(=O)c1ccc(NC(=O)C2(OC(=O)Cc3c[nH]c4ccccc34)CCCCC2)cc1 [7a, Ethyl-4-(1-(2-(1H-indol-3-yl)acetoxy)cyclohexanecarboxamido)benzoate]	2980 ± 640 nM	11200 ± 3750 nM	97–243	88.1 nM	88 ± 10 nM	70 to 120 nM	0.292	4.025	severe shrinkage and morphological alterations	127.215	115 ± 16 nM	115 nM	severe shrinkage and morphological alterations	97.347	3.086 ± 0.038 fold	2.938 ± 0.063 fold	0.471 ± 0.051 fold	50.9% and 50.905 ± 5.975%	
CCOC(=O)c1ccc(NC(=O)C2(OC(=O)[C@H](Cc3ccccc3)NC(=O)Oc3ccccc3)CCCCC2)cc1 [7j, Ethyl-4-(1-((2-((phenoxycarbonyl)amino)-3-phenylpropanoyl)oxy)cyclohexanecarboxamido) benzoate]	1770 ± 694 nM	16800 ± 637 nM	97–243	69 nM	69 ± 6 nM	70 to 120 nM	0.239	3.461	severe shrinkage and morphological alterations	242.956	87 ± 7 nM	87.1 nM	severe shrinkage and morphological alterations	192.689	3.586 ± 0.098 fold	2.960 ± 0.065 fold	0.127 ± 0.009 fold	52.6% and 52.650 ± 5.310%	
